Reference: the CheMixHub viscosity set

Experiment: xn = mol fraction of the nth substance listed

CC(C)(C)O + CCCCCC
303.2 K, 101.33 kPa
Conditions | viscosity [mPa·s]
x2 = 0.05 | 2.298
x2 = 0.1 | 1.677
x2 = 0.15 | 1.306
x2 = 0.2 | 1.052
x2 = 0.3 | 0.749
x2 = 0.4 | 0.568
x2 = 0.5 | 0.465
x2 = 0.6 | 0.41
x2 = 0.7 | 0.361
x2 = 0.8 | 0.319
x2 = 0.85 | 0.302
x2 = 0.9 | 0.289
x2 = 0.95 | 0.281

CCCCOC(=O)c1ccccc1 + CCCCCC
101 kPa
Conditions | viscosity [mPa·s]
298.15 K, x2 = 0.0788 | 2.272
298.15 K, x2 = 0.1269 | 2.042
298.15 K, x2 = 0.1801 | 1.81
298.15 K, x2 = 0.2539 | 1.536
298.15 K, x2 = 0.302 | 1.377
298.15 K, x2 = 0.3485 | 1.244
298.15 K, x2 = 0.4084 | 1.088
298.15 K, x2 = 0.4955 | 0.896
298.15 K, x2 = 0.5498 | 0.796
298.15 K, x2 = 0.6402 | 0.654
298.15 K, x2 = 0.6861 | 0.594
298.15 K, x2 = 0.7746 | 0.495
298.15 K, x2 = 0.8136 | 0.458
298.15 K, x2 = 0.8494 | 0.427
298.15 K, x2 = 0.8868 | 0.399
298.15 K, x2 = 0.9265 | 0.37
298.15 K, x2 = 0.961 | 0.348
308.15 K, x2 = 0.0668 | 1.923
308.15 K, x2 = 0.1277 | 1.7
308.15 K, x2 = 0.1875 | 1.5
308.15 K, x2 = 0.2458 | 1.331
308.15 K, x2 = 0.2926 | 1.211
308.15 K, x2 = 0.3554 | 1.063
308.15 K, x2 = 0.4013 | 0.966
308.15 K, x2 = 0.4549 | 0.863
308.15 K, x2 = 0.5013 | 0.785
308.15 K, x2 = 0.5515 | 0.707
308.15 K, x2 = 0.5967 | 0.644
308.15 K, x2 = 0.6407 | 0.59
308.15 K, x2 = 0.6896 | 0.536
308.15 K, x2 = 0.728 | 0.497
308.15 K, x2 = 0.7727 | 0.457
308.15 K, x2 = 0.8106 | 0.427
308.15 K, x2 = 0.8512 | 0.396
308.15 K, x2 = 0.8888 | 0.37
308.15 K, x2 = 0.9482 | 0.337
318.15 K, x2 = 0.0337 | 1.707
318.15 K, x2 = 0.1077 | 1.48
318.15 K, x2 = 0.1661 | 1.326
318.15 K, x2 = 0.231 | 1.166
318.15 K, x2 = 0.2845 | 1.05
318.15 K, x2 = 0.3438 | 0.934
318.15 K, x2 = 0.3951 | 0.846
318.15 K, x2 = 0.4512 | 0.757
318.15 K, x2 = 0.4998 | 0.691
318.15 K, x2 = 0.5513 | 0.624
318.15 K, x2 = 0.5518 | 0.625
318.15 K, x2 = 0.646 | 0.523
318.15 K, x2 = 0.6884 | 0.486
318.15 K, x2 = 0.7317 | 0.447
318.15 K, x2 = 0.7749 | 0.412
318.15 K, x2 = 0.8206 | 0.383
318.15 K, x2 = 0.8608 | 0.36
318.15 K, x2 = 0.9115 | 0.327
318.15 K, x2 = 0.9342 | 0.317

CCNCC + CCCCCC
viscosity [mPa·s], 101 kPa
Conditions | x2 = 0.0897 | x2 = 0.1836 | x2 = 0.2802 | x2 = 0.3738 | x2 = 0.474 | x2 = 0.5744 | x2 = 0.6849 | x2 = 0.7818 | x2 = 0.8954
298.15 K | 0.284 | 0.281 | 0.28 | 0.278 | 0.278 | 0.279 | 0.281 | 0.283 | 0.287
313.15 K | 0.254 | 0.251 | 0.25 | 0.249 | 0.25 | 0.25 | 0.251 | 0.254 | 0.257

CCOC(=O)CCCBr + CCCCCC
303.15 K, 101 kPa
Conditions | viscosity [mPa·s]
x1 = 0.2012 | 0.4062
x1 = 0.3949 | 0.5871
x1 = 0.4988 | 0.7248
x1 = 0.6008 | 0.8853
x1 = 0.7973 | 1.274

CCCC(=O)OC + CCCCCCC
Conditions | viscosity [mPa·s]
293.15 K, 101.33 kPa, x1 = 0.08428 | 0.408
293.15 K, 101.33 kPa, x1 = 0.1292 | 0.409
293.15 K, 101.33 kPa, x1 = 0.1965 | 0.413
293.15 K, 101.33 kPa, x1 = 0.2883 | 0.419
293.15 K, 101.33 kPa, x1 = 0.3831 | 0.429
293.15 K, 101.33 kPa, x1 = 0.4997 | 0.445
293.15 K, 101.33 kPa, x1 = 0.5976 | 0.462
293.15 K, 101.33 kPa, x1 = 0.6939 | 0.483
293.15 K, 101.33 kPa, x1 = 0.7977 | 0.51
293.15 K, 101.33 kPa, x1 = 0.905 | 0.542
293.15 K, 101.33 kPa, x1 = 0.9304 | 0.552
303.15 K, 101.33 kPa, x1 = 0.05501 | 0.368
303.15 K, 101.33 kPa, x1 = 0.1135 | 0.369
303.15 K, 101.33 kPa, x1 = 0.1897 | 0.372
303.15 K, 101.33 kPa, x1 = 0.2828 | 0.377
303.15 K, 101.33 kPa, x1 = 0.4056 | 0.388
303.15 K, 101.33 kPa, x1 = 0.5087 | 0.4
303.15 K, 101.33 kPa, x1 = 0.5969 | 0.413
303.15 K, 101.33 kPa, x1 = 0.6951 | 0.431
303.15 K, 101.33 kPa, x1 = 0.803 | 0.454
303.15 K, 101.33 kPa, x1 = 0.9043 | 0.481
303.15 K, 101.33 kPa, x1 = 0.9349 | 0.49
308.15 K, 101.3 kPa, x1 = 0.0525 | 0.357
308.15 K, 101.3 kPa, x1 = 0.156 | 0.366
308.15 K, 101.3 kPa, x1 = 0.1959 | 0.369
308.15 K, 101.3 kPa, x1 = 0.2969 | 0.379
308.15 K, 101.3 kPa, x1 = 0.4989 | 0.406
308.15 K, 101.3 kPa, x1 = 0.5971 | 0.421
308.15 K, 101.3 kPa, x1 = 0.7995 | 0.459
308.15 K, 101.3 kPa, x1 = 0.8524 | 0.47
308.15 K, 101.3 kPa, x1 = 0.9236 | 0.487
308.15 K, 101.3 kPa, x1 = 0.9531 | 0.494
308.15 K, 101.3 kPa, x2 = 0.0175 | 0.501
313.15 K, 101.33 kPa, x1 = 0.06751 | 0.334
313.15 K, 101.33 kPa, x1 = 0.1218 | 0.335
313.15 K, 101.33 kPa, x1 = 0.1984 | 0.338
313.15 K, 101.33 kPa, x1 = 0.2903 | 0.342
313.15 K, 101.33 kPa, x1 = 0.4044 | 0.351
313.15 K, 101.33 kPa, x1 = 0.5173 | 0.363
313.15 K, 101.33 kPa, x1 = 0.5954 | 0.373
313.15 K, 101.33 kPa, x1 = 0.6931 | 0.388
313.15 K, 101.33 kPa, x1 = 0.8053 | 0.409
313.15 K, 101.33 kPa, x1 = 0.9053 | 0.432
313.15 K, 101.33 kPa, x1 = 0.9355 | 0.44
318.15 K, 101.3 kPa, x1 = 0.0525 | 0.326
318.15 K, 101.3 kPa, x1 = 0.156 | 0.337
318.15 K, 101.3 kPa, x1 = 0.1959 | 0.341
318.15 K, 101.3 kPa, x1 = 0.2969 | 0.352
318.15 K, 101.3 kPa, x1 = 0.4989 | 0.379
318.15 K, 101.3 kPa, x1 = 0.5971 | 0.397
318.15 K, 101.3 kPa, x1 = 0.7995 | 0.427
318.15 K, 101.3 kPa, x1 = 0.8524 | 0.437
318.15 K, 101.3 kPa, x1 = 0.9236 | 0.451
318.15 K, 101.3 kPa, x1 = 0.9531 | 0.458
318.15 K, 101.3 kPa, x2 = 0.0175 | 0.465

CCCCOC(=O)c1ccccc1 + CCCCCCC
viscosity [mPa·s], 101 kPa
Conditions | x1 = 0.0994 | x1 = 0.1959 | x1 = 0.2964 | x1 = 0.3986 | x1 = 0.4963 | x1 = 0.5965 | x1 = 0.6954 | x1 = 0.7986 | x1 = 0.8973
298.15 K | 0.457 | 0.536 | 0.645 | 0.777 | 0.95 | 1.162 | 1.411 | 1.731 | 2.122
308.15 K | 0.41 | 0.476 | 0.571 | 0.686 | 0.811 | 0.978 | 1.176 | 1.413 | 1.727
318.15 K | 0.368 | 0.426 | 0.501 | 0.598 | 0.697 | 0.835 | 0.991 | 1.192 | 1.426
